pIC50: −log10 of the molar value.
Experiments:
[1] = tested on: sAPPβ levels in H4 human neuroglioma cells over-expressing the wild-type human APP695; experiment: Whole Cell Assay (In Vitro sAPPb Assay); type: cell-based; conditions: 18 hours treatment, average of 2 determinations, values marked b: geometric mean of 3-9 determinations
Method: Whole Cell Assay (In Vitro sAPPb Assay):
H4 human neuroglioma cells over-expressing the wild-type human APP695 are treated for 18 hours with compound in a final concentration 1% DMSO. sAPPβ levels are measured using TMB-ELISA with capture APP N-terminal antibody (Affinity BioReagents, OMA1-03132), wild-type sAPPβ specific reporter p192 (Elan), and tertiary anti rabbit-HRP (GE Healthcare).

BACE1 enzyme = BACE1 enzyme (Homo sapiens (Human), UniProt P56817); experiment: BACE1 Cell-Free Assay (fluorescence polarization, cleavage of synthetic APP substrate); type: biochemical; conditions: average of 2 determinations; values marked b: geometric mean of 3-9 determinations
Source text: This assay measures the inhibition of the beta-secretase enzyme as it cleaves a non-native peptide.
A synthetic APP substrate that can be cleaved by beta-secretase having N-terminal biotin and made fluorescent by the covalent attachment of Oregon Green at the Cys residue is used to assay beta-secretase activity in the presence or absence of the inhibitory compounds. […] The BACE1 enzyme is affinity purified material from conditioned media of CHO-K1 cells that have been transfected with a soluble BACE construct (BACE1deltaTM96His). Compounds are incubated in a ½ log dose response curve from a top concentration of 100 μM with BACE1 enzyme and the biotinylated fluorescent peptide in 384-well black plates (Thermo Scientific #4318). BACE1 is at a final concentration of 0.1 nM with a final concentration of peptide substrate of 150 nM in a reaction volume of 30 μL assay buffer [100 mM sodium acetate, pH 4.5 (brought to pH with acetic acid), and 0.001% Tween-20]. Plates are covered and incubated for 3 hours at 37° C. The reaction is stopped with the addition of 30 μL of 1.5 μM Streptavidin (Pierce, #21125). After a 10 minute incubation at room temperature, plates are read on a PerkinElmer EnVision for fluorescence polarization (Ex485 nm/Em530 nm). The activity of the beta-secretase enzyme is detected by changes in the fluorescence polarization that occur when the substrate is cleaved by the enzyme.

Chain of BACE1 enzyme (P56817 46-457): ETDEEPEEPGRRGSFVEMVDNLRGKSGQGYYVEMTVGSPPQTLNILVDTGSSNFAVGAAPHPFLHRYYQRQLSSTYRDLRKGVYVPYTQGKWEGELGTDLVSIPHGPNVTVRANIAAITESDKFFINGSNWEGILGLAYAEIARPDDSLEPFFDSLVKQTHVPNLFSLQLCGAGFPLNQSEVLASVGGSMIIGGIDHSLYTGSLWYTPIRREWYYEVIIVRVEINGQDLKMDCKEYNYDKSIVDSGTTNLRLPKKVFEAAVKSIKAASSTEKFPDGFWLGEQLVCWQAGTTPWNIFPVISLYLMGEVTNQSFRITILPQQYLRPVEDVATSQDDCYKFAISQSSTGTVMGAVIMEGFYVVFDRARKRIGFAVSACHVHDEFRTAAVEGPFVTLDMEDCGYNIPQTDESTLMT

| pIC50 ([1]; Homo sapiens) | pIC50 (BACE1 enzyme) | Molecule | pIC50 [1] |
| --- | --- | --- | --- |
| 5.87 | 4.44 | Cc1cnc([C@@H]2C[C@@H]3CSC(N)=N[C@]3(c3ccc(F)cc3F)CO2)cn1 [Example C89, (4aS,6S,8aR)-8a-(2,4-difluorophenyl)-6-(5-methylpyrazin-2-yl)-4,4a,5,6,8,8a-hexahydropyrano[3,4-d][1,3]thiazin-2-amine] |  |
| 7.20 | 5.90 | COc1cncc([C@H]2C[C@H]3CSC(N)=N[C@@]3(c3ccc(F)cc3F)CO2)c1 [Example 26, (4aR,6R,8aS)-8a-(2,4-Difluorophenyl)-6-(5-methoxypyridin-3-yl)-4,4a,5,6,8,8a-hexahydropyrano[3,4-d][1,3]thiazin-2-amine] |  |
| 7.81 | 5.67 | NC1=N[C@@]2(c3ccc(F)cc3F)CO[C@@H](c3ccc4nccn4c3)C[C@H]2CS1 [Example 28, (4aR,6R,8aS)-8a-(2,4-Difluorophenyl)-6-(imidazo[1,2-a]pyridin-6-yl)-4,4a,5,6,8,8a-hexahydropyrano[3,4-d][1,3]thiazin-2-amine] |  |
| 7.58 | 6.79 | Cn1cc(F)c([C@H]2C[C@H]3CSC(N)=N[C@@]3(c3ccc(F)cc3F)CO2)n1 [Example 8, (4aR,6R,8aS)-8a-(2,4-difluorophenyl)-6-(4-fluoro-1-methyl-1H-pyrazol-3-yl)-4,4a,5,6,8,8a-hexahydropyrano[3,4-d][1,3]thiazin-2-amine] |  |
| 8.17 |  | Cc1ccc([C@H]2C[C@H]3CSC(N)=N[C@@]3(c3ccc(F)cc3F)CO2)cn1 (relative stereo) [Example 7, rel-(4aR,6R,8aS)-8a-(2,4-Difluorophenyl)-6-(6-methylpyridin-3-yl)-4,4a,5,6,8,8a-hexahydropyrano[3,4-d][1,3]thiazin-2-amine] |  |
| 7.38 | 6.33 | Cn1ncc([C@H]2C[C@H]3CSC(N)=N[C@@]3(c3ccc(F)cc3F)CO2)n1 [Example 12, (4aR,6R,8aS)-8a-(2,4-Difluorophenyl)-6-(2-methyl-2H-1,2,3-triazol-4-yl)-4,4a,5,6,8,8a-hexahydropyrano[3,4-d][1,3]thiazin-2-amine] |  |
| 7.67 | 6.62 | NC1=N[C@@]2(c3ccc(F)cc3F)CO[C@@H](c3nc4cnccc4o3)C[C@H]2CS1 [Example 10, (4aR,6R,8aS)-8a-(2,4-difluorophenyl)-6-([1,3]oxazolo[4,5-c]pyridin-2-yl)-4,4a,5,6,8,8a-hexahydropyrano[3,4-d][1,3]thiazin-2-amine] |  |
| 7.38 | 6.47 | Cc1nc([C@H]2C[C@H]3CSC(N)=N[C@@]3(c3ccc(F)cc3F)CO2)no1 [Example 6, (4aR,6R,8aS)-8a-(2,4-Difluorophenyl)-6-(5-methyl-1,2,4-oxadiazol-3-yl)-4,4a,5,6,8,8a-hexahydropyrano[3,4-d][1,3]thiazin-2-amine] |  |
| 8.42 | 7.08 | Cn1nc([C@H]2C[C@H]3CSC(N)=N[C@@]3(c3ccc(F)cc3F)CO2)cc1F [Example 1, (4aR,6R,8aS)-8a-(2,4-difluorophenyl)-6-(5-fluoro-1-methyl-1H-pyrazol-3-yl)-4,4a,5,6,8,8a-hexahydropyrano[3,4-d][1,3]thiazin-2-amine] |  |
| 7.54 | 6.46 | COc1cnc([C@H]2C[C@H]3CSC(N)=N[C@@]3(c3ccc(F)cc3F)CO2)nc1 [Example 11, (4aR,6R,8aS)-8a-(2,4-Difluorophenyl)-6-(5-methoxypyrimidin-2-yl)-4,4a,5,6,8,8a-hexahydropyrano[3,4-d][1,3]thiazin-2-amine] |  |
| 7.74 | 6.63 | NC1=N[C@@]2(c3ccc(F)cc3F)CO[C@@H](c3ccc(F)cn3)C[C@H]2CS1 [Example 2, (4aR,6R,8aS)-8a-(2,4-Difluorophenyl)-6-(5-fluoropyridin-2-yl)-4,4a,5,6,8,8a-hexahydropyrano[3,4-d][1,3]thiazin-2-amine] |  |
| 7.39 | 6.42 | COc1cc([C@H]2C[C@H]3CSC(N)=N[C@@]3(c3ccc(F)cc3F)CO2)ccn1 [Example 25, (4aR,6R,8aS)-8a-(2,4-Difluorophenyl)-6-(2-methoxypyridin-4-yl)-4,4a,5,6,8,8a-hexahydropyrano[3,4-d][1,3]thiazin-2-amine] |  |
| 8.13 | 6.92 | Cn1cc([C@H]2C[C@H]3CSC(N)=N[C@@]3(c3ccc(F)cc3F)CO2)ccc1=O [Example 3, 5-[(4aR,6R,8aS)-2-Amino-8a-(2,4-difluorophenyl)-4,4a,5,6,8,8a-hexahydropyrano[3,4-d][1,3]thiazin-6-yl]-1-methylpyridin-2(1H)-one] |  |
| 7.69 | 6.41 | Cc1cnc([C@H]2C[C@H]3CSC(N)=N[C@@]3(c3ccc(F)cc3F)CO2)cn1 [Example 20, (4aR,6R,8aS)-8a-(2,4-Difluorophenyl)-6-(5-methylpyrazin-2-yl)-4,4a,5,6,8,8a-hexahydropyrano[3,4-d][1,3]thiazin-2-amine] |  |
| 8.57 |  | NC1=N[C@@]2(c3ccc(F)cc3F)CO[C@@H](c3cncc(F)c3)C[C@H]2CS1 [Example 29, (4aR,6R,8aS)-8a-(2,4-difluorophenyl)-6-(5-fluoropyridin-3-yl)-4,4a,5,6,8,8a-hexahydropyrano[3,4-d][1,3]thiazin-2-amine] |  |

Continued, molecule first:

| Molecule | pIC50 ([1]; Homo sapiens) | pIC50 (BACE1 enzyme) | pIC50 [1] |
| --- | --- | --- | --- |
| NC1=N[C@@]2(c3ccc(F)cc3F)CO[C@@H](c3nc(C(F)F)co3)C[C@H]2CS1 [Example 14, (4aR,6R,8aS)-6-[4-(Difluoromethyl)-1,3-oxazol-2-yl]-8a-(2,4-difluorophenyl)-4,4a,5,6,8,8a-hexahydropyrano[3,4-d][1,3]thiazin-2-amine] | 7.68 | 6.64 |  |
| CCOc1cc([C@H]2C[C@H]3CSC(N)=N[C@@]3(c3ccc(F)cc3F)CO2)nn1C [Example 21, (4aR,6R,8aS)-8a-(2,4-Difluorophenyl)-6-(5-ethoxy-1-methyl-1H-pyrazol-3-yl)-4,4a,5,6,8,8a-hexahydropyrano[3,4-d][1,3]thiazin-2-amine] | 6.91 | 5.27 |  |
| Cc1cc([C@H]2C[C@H]3[C@@H](C)SC(N)=N[C@@]3(c3ccc(F)cc3F)CO2)on1 [Example 9, (4R,4aR,6R,8aS)-8a-(2,4-difluorophenyl)-4-methyl-6-(3-methyl-1,2-oxazol-5-yl)-4,4a,5,6,8,8a-hexahydropyrano[3,4-d][1,3]thiazin-2-amine] | 8.28 | 7.12 |  |
| Cn1cc([C@H]2C[C@H]3CSC(N)=N[C@@]3(c3ccc(F)cc3F)CO2)nn1 [Example 18, (4aR,6R,8aS)-8a-(2,4-Difluorophenyl)-6-(1-methyl-1H-1,2,3-triazol-4-yl)-4,4a,5,6,8,8a-hexahydropyrano[3,4-d][1,3]thiazin-2-amine] | 7.60 | 6.06 |  |
| (4aR,6R,8aS)-8a-(2,4-Difluorophenyl)-6-[1-(^2H3)methyl-1H-pyrazol-4-yl]-4,4a,5,6,8,8a-hexahydropyrano[3,4-d][1,3]thiazin-2-amine [Example 15] |  |  | 8.36 |
| Cc1cc([C@H]2C[C@H]3[C@@H](CF)SC(N)=N[C@@]3(c3ccc(F)cc3F)CO2)on1 [Example 13, (4S,4aR,6R,8aS)-8a-(2,4-Difluorophenyl)-4-(fluoromethyl)-6-(3-methyl-1,2-oxazol-5-yl)-4,4a,5,6,8,8a-hexahydropyrano[3,4-d][1,3]thiazin-2-amine] | 7.88 | 7.26 |  |
| C[C@H]1SC(N)=N[C@@]2(c3ccc(F)cc3F)CO[C@@H](c3cnn(C)c3)C[C@@H]12 [Example 16, (4R,4aR,6R,8aS)-8a-(2,4-Difluorophenyl)-4-methyl-6-(1-methyl-1H-pyrazol-4-yl)-4,4a,5,6,8,8a-hexahydropyrano[3,4-d][1,3]thiazin-2-amine] | 8.55 | 7.61 |  |
| Cn1cc([C@H]2C[C@H]3[C@@H](CF)SC(N)=N[C@@]3(c3ccc(F)cc3F)CO2)cn1 [Example 22, (4S,4aR,6R,8aS)-8a-(2,4-Difluorophenyl)-4-(fluoromethyl)-6-(1-methyl-1H-pyrazol-4-yl)-4,4a,5,6,8,8a-hexahydropyrano[3,4-d][1,3]thiazin-2-amine] | 8.20 |  |  |
| NC1=N[C@@]2(c3ccc(F)cc3F)CO[C@@H](c3cn4cccnc4n3)C[C@H]2CS1 [Example 4, (4aR,6R,8aS)-8a-(2,4-Difluorophenyl)-6-(imidazo[1,2-a]pyrimidin-2-yl)-4,4a,5,6,8,8a-hexahydropyrano[3,4-d][1,3]thiazin-2-amine] | 7.18 | 5.74 |  |
| N#Cc1coc([C@H]2C[C@H]3CSC(N)=N[C@@]3(c3ccc(F)cc3F)CO2)n1 [Example 19, 2-[(4aR,6R,8aS)-2-Amino-8a-(2,4-difluorophenyl)-4,4a,5,6,8,8a-hexahydropyrano[3,4-d][1,3]thiazin-6-yl]-1,3-oxazole-4-carbonitrile] | 7.14 | 6.26 |  |
